Measured values from US9492368B2, “External preparation for skin” (HAYASHIBARA CO., LTD., priority 2011, dated 2016).
Marks after values point to notes of the source that are not given here.

How the values were obtained:
NHDF cells = experiment: Collagen production by NHDF cells (Sircol collagen assay); format: cell-based, human; conditions: three days
Source text: For the anti-wrinkle action of glucosyladenosines, the effect of glucosyladenosines on the collagen production in the dermis was examined as follows using a normal human fetal fibroblast (NHDF) commonly used for evaluating agents for enhancing collagen production in the skin. […] Thereafter, the culture supernatant in each well was removed by aspiration, and the resulting cells were washed with phosphate buffered saline (PBS), and admixed with pepsin, commercialized by Sigma-Aldrich Co. LLC., Missouri, USA, which had been diluted with 1 M acetic acid to give a concentration of 1 mg/ml, in a volume of 250 μl/well. The resulting plates were shaken at ambient temperature for four hours, and the cells adhered to the wells were detached therefrom with a cell scraper and subjected to pipetting, followed by collecting the resulting cell suspension after the pepsin digestion into “EPPENDORF TUBE”, a product name of a 1.5 ml microtube, commercialized by Eppendorf AG, Hamburg, Germany. “Sicrol Collagen Assay Kit”, a product name of a developing color reagent for quantifying collagen, commercialized by Biocolor, CA, USA, was added to the tubes in a volume of 500 μl/tube, mixed with a vortex mixer, kneaded by allowing the tubes upside-down at an ambient temperature for exact 30 min using “RT-50”, a product name of a rotator commercialized by TAITEC Corporation, Saitama, Japan, and centrifuged (1,500 rpm) at 4° C. for 10 min to remove supernatants. The resulting sediments were admixed with 1 N NaOH in a volume of 100 μl/tube and dissolved by pipetting. The resulting solutions were all transferred to “FALCON MICROTEST™96”, a product name of a 96-well microplate commercialized by Becton, Dickinson and Company, NJ, USA, and measured for absorbance (A560-A650) on “Vmax Microplate Reader”, a product name of an absorption spectrometer commercialized by Molecular Devices Corporation, CA, USA. The collagen level in each well was determined based on a standard curve prepared by using type I collagen commercialized by KOKEN Co., Ltd., Tokyo, Japan, and the data are shown in Table 6 in parallel.

profilaggrin = experiment: Differentiation of keratinocytes: profilaggrin protein expression in NHEK cells by western blotting; format: cell-based, human; conditions: eight days, relative to no addition = 1
Source text: For the anti-wrinkle action of glucosyladenosines, the effect of glucosyladenosines on keratinocytes in the skin was examined as follows using normal human epidermal keratinocytes commonly used for evaluating accelerators for differentiating keratinocytes in the skin. Using normal human epidermal keratinocytes (derived from human newborn and commercialized by Kurabo Industries Ltd., Okayama, Japan, and abbreviated as “NHEK cells”, hereinafter), the effects of glucosyladenosines on the differentiation of keratinocytes was evaluated by comparing the expression level of profilaggrin, as a marker protein of cells in the granular layer, which is specifically expressed in the cells when keratinocytes differentiate into the cells from those in the basal lamina and which is determined by the western blotting method using an antibody specific to the marker protein. In this experiment, the increment of profilaggrin means that cells in the granular layer have been increased as a result of accelerating the differentiation of keratinocytes in the basal lamina.
NHEK Cells, which had been suspended in EpiLife medium, commercialized by Caskade Biologics Inc., Oregon, USA, containing EDGS (EpiLife Defined Growth Supplement) (abbreviated as “EpiLife medium containing EDGS”, hereinafter), were inoculated to “FALCON MULTI-WELL™ 6WELL”, 6-well plate, commercialized by Becton, Dickinson and Co., NJ, USA, which had been coated with “Cellmatorix Type IV”, a product name of collagen, commercialized by Nitta Gelatin Inc., Osaka, Japan, in a cell amount of 5×10^5 cells/1.5 ml/well; and cultured at 37° C. for two days under a 5 v/v % CO2 condition. […] As control 1, adenosine was diluted with EpiLife medium to give a final concentration of 0.1 μM, 1 μM or 10 μM, and the dilution was added to the plates in a volume of 1.5 ml/well. As control 2, EpiLife medium was only added to plates in a volume of 1.5 ml/well. Thereafter, the cells were incubated for eight days while replacing the medium in each well with a fresh preparation of the same medium as added initially every other day. The culture medium in each well was removed by aspiration, and the resulting cells were washed by adding PBS, followed by adding an extraction buffer to the cells in a volume of 100 μl/well, detaching the cells from each well with a cell scraper, and collecting the cells in “EPPENDORF TUBE”, a product name of a 1.5 ml microtube, commercialized by Eppendorf AG, Hamburg, Germany. The collected cells were mixed by a vortex mixer, suspended, allowed to stand over ice for 30 min, and centrifuged at 15,000×g for 10 min at 4° C. to collect a supernatant for use as a sample for analysis. 20 mM Tris-HCl buffer (pH 8.0) containing 2% by mass of sodium dodecyl sulfate (SDS), 1 mM edetic acid, 20 μM phenylmethylsulfonyl fluoride (PMSF), 20 μM leupeptin, and 0.1 μM aprotinin was used as an extraction buffer.
Twelve microliters of the above sample for analysis was added to eight micriloters of 2.5 w/v % SDS aqueous solution containing 5 v/v % dithiothreitol (DTT), and the mixture was in usual manner subjected to SDS-polyacrylamide gel electrophoresis after charged on an SDS-polyacrylamide gel in an amount of 20 μg protein per lane. After completing the electrophoresis, proteins contained in the gel were in usual manner transferred to a nitrocellulose membrane, which was then soaked in “BlockAce”, a product name of a blocking solution commercialized by Dainippon Sumitomo Pharma Co., Ltd., Osaka, Japan, to inhibit non-specific reactions. […]

Compound | Collagen production level (NHDF cells; 5 μM in medium) | Collagen production level (NHDF cells; 10 μM in medium) | Expression level of profilaggrin (profilaggrin; 0.1 μM in medium) | Expression level of profilaggrin (profilaggrin; 1 μM in medium) | Expression level of profilaggrin (profilaggrin; 10 μM in medium)
Nc1ncnc2c1ncn2[C@@H]1O[C@H](CO)[C@@H](O[C@H]2O[C@H](CO)[C@@H](O)[C@H](O)[C@H]2O)[C@H]1O [3′-Glucosyladenosine, α-D-glucopyranosyl-(1→3′)-adenosine] | 3.39* μg/well | 4.37** μg/well | 1.6* | 2.4** | 2.0**
Nc1ncnc2c1ncn2[C@@H]1O[C@H](CO[C@H]2O[C@H](CO)[C@@H](O)[C@H](O)[C@H]2O)[C@@H](O)[C@H]1O [5′-Glucosyladenosine, α-D-glucopyranosyl-(1→5′)-adenosine] | 3.53* μg/well | 4.54** μg/well | 2.1* | 3.8** | 2.8**
Nc1ncnc2c1ncn2[C@@H]1O[C@H](CO)[C@@H](O)[C@H]1O [Adenosine, reference compound] | 2.61 μg/well | 3.02* μg/well | 1.1 | 1.2 | 0.9
